Like-named read-outs stand apart in the source and are kept apart here.
Key:
[1] = target: T1, somatostatin receptor (Rattus norvegicus, UniProt P30680); test: Competitive binding assay displacing [111In]-DTPA-Octreotide (OctreoScan) on AR42J tumour cells
T1 construct: endogenous in cells; host or cells: AR42J pancreatic tumour cells (whole cells)

[2] = Dynamic PET imaging of AR42J tumor bearing mice; conditions: female, BALB/c nu/nu athymic, mouse, in vivo, iv, total radioactivity; AR42J tumor, 60 min, i.v.; read-out: Tumor radiotracer uptake at 60 min by imaging
From the text: (§1) Briefly, tail veins were cannulated under general anesthesia (isofluorane).

[3] = Direct counting of tissue radioactivity (γ-counter), AR42J tumor; parameters: species or system mice; conditions: female, BALB/c nu/nu athymic, mouse, in vivo, iv, total radioactivity; AR42J tumor, after 60 min PET scan; read-out: Tumor radiotracer uptake after 60 min by γ-counting
Description: (§2) Six to eight-week old female BALB/c nu/nu athymic mice were obtained from Harlan United Kingdom Ltd (Bicester, UK). […] Tumors were established by subcutaneous. injection of 100 μl of PBS containing 1×10^6 cells. […] All samples were weighed and their radioactivity directly determined using a Cobra II Auto-gamma counter (formerly Packard Instruments Meriden CT USA) applying a decay correction. The results were expressed as a percentage of the injected dose per gram (% ID/g).

[4] = system: AR42J tumor; conditions: same tumor model; cited from earlier work
[5] = system: AR42J tumor xenografts; test: Dynamic PET imaging of AR42J tumor bearing mice; conditions: mouse, in vivo; for Tumor radiotracer uptake at 60 min by imaging: iv
From the text: as §1

[6] = system: AR42J tumor xenografts; test: Direct counting of tissue radioactivity (γ-counter), AR42J tumor; parameters: species or system mice; conditions: mouse, in vivo
Description: as §2

[7] = Protocol: The octanol/PBS partition coefficients were determined using the shake flask method. Both solvents were presaturated with each other by shaking together for 5 min. To a solution of 500 μL of both octanol and PBS was added 20 μL of radiolabelled ligand in EtOH (n=3). The solutions mixtures were shaken in a rotamixer for 5 minutes. After equilibration the mixtures were centrifuged (10 min at 13,000 rpm) to achieve good separation. Samples from each layer (25 μL) were taken and measured in a γ counter and Log D was calculated according to the formula: log D=log(cpm in octanol layer/cpm in aqueous layer). Log D values were measured using the ^18F-labelled triazole. […] The receptor affinities for [^18F]1b-6b were determined using a competitive binding assay in AR42J tumours cells with [^111In]-OctreoScan as the labeled radiotracer.
[8] = target: sstr-2 (Homo sapiens, UniProt P30874); test: Calcium flux FLIPR assay, agonist mode, sstr-2 expressing Chem-1 cells
sstr-2, sequence (P30874 whole entry): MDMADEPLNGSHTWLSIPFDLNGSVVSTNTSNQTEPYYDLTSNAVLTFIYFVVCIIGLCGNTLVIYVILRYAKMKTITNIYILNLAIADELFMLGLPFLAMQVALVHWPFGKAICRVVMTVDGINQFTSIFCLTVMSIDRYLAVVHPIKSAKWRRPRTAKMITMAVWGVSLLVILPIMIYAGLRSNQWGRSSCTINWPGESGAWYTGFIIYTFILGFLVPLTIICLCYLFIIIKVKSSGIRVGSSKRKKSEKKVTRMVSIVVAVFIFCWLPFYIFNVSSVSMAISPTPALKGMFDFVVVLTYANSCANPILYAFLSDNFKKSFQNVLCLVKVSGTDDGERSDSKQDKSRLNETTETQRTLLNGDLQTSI

[9] = cited from earlier work
[10] = read-out: Alkyne analogue (a) IC50
[11] = [19F]-triazole, read-out: Triazole analogue (b) IC50

T1 sequence (P30680 whole entry): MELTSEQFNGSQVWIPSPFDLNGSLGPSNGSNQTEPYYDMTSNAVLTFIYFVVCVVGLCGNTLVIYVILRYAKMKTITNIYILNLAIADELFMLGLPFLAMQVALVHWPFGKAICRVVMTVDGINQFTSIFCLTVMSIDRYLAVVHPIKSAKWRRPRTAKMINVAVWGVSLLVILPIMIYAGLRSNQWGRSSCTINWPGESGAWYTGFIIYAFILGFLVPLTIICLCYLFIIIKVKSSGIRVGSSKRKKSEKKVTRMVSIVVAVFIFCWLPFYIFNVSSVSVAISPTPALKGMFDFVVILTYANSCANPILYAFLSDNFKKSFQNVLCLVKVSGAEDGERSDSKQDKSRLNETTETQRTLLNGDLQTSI

## C#CCCC(=O)NCCOCCOCCOCCOCCOCCOCCC(=O)N[C@H](Cc1ccccc1)C(=O)N[C@H]1CSSC[C@@H](C(=O)N[C@H](C(=O)O)[C@@H](C)O)NC(=O)[C@H]([C@@H](C)O)NC(=O)[C@H](CCCCN)NC(=O)[C@@H](Cc2c[nH]c3ccccc23)NC(=O)[C@H](Cc2ccc(O)cc2)NC1=O [2a, E-PEG-TOCA]
[1]; [10]
  IC50: 5.1 ± 2.1 nM

## C#CC(=O)NCC(=O)N[C@H](Cc1ccccc1)C(=O)N[C@H]1CSSC[C@@H](C(=O)N[C@H](C(=O)O)[C@@H](C)O)NC(=O)[C@H]([C@@H](C)O)NC(=O)[C@H](CCCCN)NC(=O)[C@@H](Cc2c[nH]c3ccccc23)NC(=O)[C@H](Cc2ccc(O)cc2)NC1=O [3a, G-TOCA]
[1]; [10]
  IC50: 1.4 ± 0.1 nM

## C#CCCC(=O)N[C@H](Cc1ccccc1)C(=O)N[C@H]1CSSC[C@@H](C(=O)N[C@H](C(=O)O)[C@@H](C)O)NC(=O)[C@H]([C@@H](C)O)NC(=O)[C@H](CCCCN)NC(=O)[C@@H](Cc2c[nH]c3ccccc23)NC(=O)[C@H](Cc2ccc(O)cc2)NC1=O [4a, E-TOCA]
[1]; [10]
  IC50: 1.8 ± 0.8 nM

## C#CC(=O)NCCC(=O)NCC(=O)N[C@H](Cc1ccccc1)C(=O)N[C@H]1CSSC[C@@H](C(=O)N[C@H](C(=O)O)[C@@H](C)O)NC(=O)[C@H]([C@@H](C)O)NC(=O)[C@H](CCCCN)NC(=O)[C@@H](Cc2c[nH]c3ccccc23)NC(=O)[C@H](Cc2ccc(O)cc2)NC1=O [5a, propynoyl-β-Ala-Gly-[Tyr^3]-Octreotate]
[1]; [10]
  IC50: 1 ± 0.3 nM

## C[C@@H](O)[C@H](NC(=O)[C@@H]1CSSC[C@H](NC(=O)[C@@H](Cc2ccccc2)NC(=O)CN2CCN(CC(=O)O)CCN(CC(=O)O)CCN(CC(=O)O)CC2)C(=O)N[C@@H](Cc2ccc(O)cc2)C(=O)N[C@H](Cc2c[nH]c3ccccc23)C(=O)N[C@@H](CCCCN)C(=O)N[C@@H]([C@@H](C)O)C(=O)N1)C(=O)O [[^68Ga]DOTA-TATE, [^68Ga]-DOTATATE, metal not drawn, reference compound]
[2]
  tissue uptake per volume at 1 h: 2.75 ± 0.11 %ID/mL
[3]
  tissue uptake at 1 h: 3.78 ± 0.32 %ID/g

## C[C@@H](O)[C@@H]1NC(=O)[C@H](CCCCN)NC(=O)[C@@H](Cc2c[nH]c3ccccc23)NC(=O)[C@H](Cc2ccccc2)NC(=O)[C@@H](NC(=O)[C@@H](Cc2ccccc2)NC(=O)CN(CCN(CCN(CC(=O)[O-])CC(=O)O)CC(=O)[O-])CC(=O)[O-])CSSC[C@@H](C(=O)N[C@H](CO)[C@@H](C)O)NC1=O.[111In+3] [[^111In]-DTPA-octreotide]
[4]
  Tumor uptake reported by Froidevaux et al.: 3.03±0.26 % ID/g

## FET-G-PEG-TOCA [1b]
[5]; 1 h
  Tumor radiotracer uptake at 60 min by imaging: 5.36 ± 0.45 % ID/ml
[6]; iv, 1 h
  Tumor radiotracer uptake after 60 min by γ-counting: 8.29 ± 1.42 % ID/g
[7]
  Log D: −2.68
  Log D of 18F-triazole: −2.68

## FET-G-TOGA [3b]
[5]
  Kidney uptake in words: highest
  Liver uptake in words: highest liver uptake
  Tumor uptake/localization in words: highest tumor uptake
  Tumor radiotracer uptake at 60 min by imaging: 11.0 ± 1.49 % ID/ml
[1]; [11]
  IC50: 4 ± 1.4 nM
[6]
  Tumor radiotracer uptake after 60 min by γ-counting: 17.04 ± 2.76 % ID/g
[7]
  Log D: −1.82
  Log D of 18F-triazole: −1.83

## FET-βAG-[W-c-(CTFTYC)K] [6b]
[5]
  Kidney uptake in words: low
[5]; 1 h
  Tumor radiotracer uptake at 60 min by imaging: 0.10 ± 0.05 % ID/ml
[8]
  Activity/affinity on sstr-2 in words: poor affinity
[6]; iv, 1 h
  Tumor radiotracer uptake after 60 min by γ-counting: 0.22 ± 0.12 % ID/g
[7]
  Log D: −1.14
  Log D of 18F-triazole: −1.14

## FETE-PEG-TOGA [2b]
[5]
  Liver uptake in words: highest liver uptake
[5]; 1 h
  Tumor radiotracer uptake at 60 min by imaging: 5.14 ± 0.40 % ID/ml
[1]; [11]
  IC50: 13.2 ± 7.8 nM
[6]; iv, 1 h
  Tumor radiotracer uptake after 60 min by γ-counting: 9.78 ± 2.57 % ID/g
[7]
  Log D: −2.77
  Log D of 18F-triazole: −2.77

## FETE-TOGA [4b]
[5]
  Tumor radiotracer uptake at 60 min by imaging: 6.11 ± 1.46 % ID/ml
[1]; [11]
  IC50: 2.9 ± 1.3 nM
[6]
  Tumor radiotracer uptake after 60 min by γ-counting: 4.50 ± 1.51 % ID/g
[7]
  Log D: −1.50
  Log D of 18F-triazole: −1.5

## [Tyr^3]octreotate
[9]
  Biological half life: 1.5-2 hours

From patent US10201625B2, “Radiolabelled octreotate analogues as PET tracers” (IMPERIAL COLLEGE, priority 2011, dated 2019)
